Assay results: a melting point compilation (Tetko et al.; mined from patent text by program, amines drawn as free bases though some values may be those of a salt)

melting point	SMILES
123 to 124 °C	c1ccc(COc2ccc(CNn3cncn3)cc2)cc1
118 °C	CCOC(=O)c1nn(Cc2ccc(Cl)c(Cl)c2)c(-c2ccc(Cl)cc2)c1C
185 to 187 °C	CC(C)(C)c1ccc(Cn2cnc3c(-c4ccco4)ncnc32)cc1
66 to 68 °C	CN1C(=O)C(c2ccc(OCCCCCBr)cc2)Sc2cc(Cl)ccc21 (centres undefined)
271 °C	Cc1ccc(N2C(=O)C(O)=C(C(=O)c3cccc(Cl)c3)C2c2ccc(C(C)C)cc2)nn1 (centres undefined)
181 to 182 °C	FC(F)(F)c1cccc(CSc2nnc(-c3ccc4ncc(-c5ccccn5)n4c3)o2)c1
169 to 171 °C	CS(=O)(=O)c1ccc(-n2cc(-c3ccc(Cl)cc3)nc2-c2ccc(Cl)cc2)cc1
65 °C	O=C(O)Cc1ccc(OCCNC(=O)[C@@H]2Cc3ccccc3N2S(=O)(=O)c2ccc(Oc3ccc(F)cc3)cc2)cc1
160 to 161 °C	N#Cc1cccc(-c2ccc(C#N)c(Cn3cncn3)c2)c1
112 °C	CCCCc1cc2ccccc2c(Cc2ccc(C(=O)O)cc2)n1
60 °C	Cn1ccc2c(C(=O)c3ccccc3OCCCCl)cccc21
111 to 113 °C	COc1ccc([C@@H]2Sc3ccccc3N(CCN(C)C)C(=O)[C@@H]2OC(=O)Nc2cccc(F)c2)cc1 (relative stereo)
78 °C	COC(=O)CCCc1cc2nc(C(F)(F)F)ccc2n1S(=O)(=O)c1ccc(C(C)C)cc1
126 to 128 °C	OC1c2cc(OCc3ccc4ccccc4n3)ccc2OCC1Oc1cccnc1 (centres undefined)
129 to 132 °C	COCCOCc1c(CN(C)CC(O)c2cccnc2)sc2c(=O)c(C(=O)NCc3ccc(Cl)cc3)cn(C)c12 (centres undefined)
96 to 98 °C	COCCN(C)c1nccc(Oc2ccc(NC(=O)c3cc(F)cc(N4CCOCC4)c3)c3ccccc23)n1

melting point	SMILES
225 to 227 °C	COCCOc1cc(OC)c2c(=O)[nH]c(-c3ccc(N4C[C@@H](C)N(C(C)=O)[C@@H](C)C4)cc3)nc2c1
192 to 195 °C	CCc1ccc2c(c1)C1CN(CCCC(=O)c3ccc(F)cc3)CCC1N2 (centres undefined)
80 to 84 °C	Cn1ncnc1COc1nc2c(-c3ccccc3)nncn2c1-c1cccc(Cl)c1
130 to 133 °C	COc1ccc(Cc2oc3cccc(O)c3c2C)cc1
259 to 261 °C	CON=Cc1nc2c(N)nc3cc(-c4ccccc4)ccc3c2s1
> 260 °C	COc1cc2c(cc1OC)CN(CCCOc1ccc(NC(=O)c3cccc(C(=O)c4ccccc4)c3)cc1)CC2
179 °C	COC(=O)c1ccc2c(c1)c(=O)n(Cc1ccccc1)c(=O)n2C
83 to 84 °C	c1cn(CCCc2ccc(OCc3coc(-c4cc5c(s4)CCCC5)n3)cc2)cn1
155 to 157 °C	CNC(=N)Nc1nc(-c2ccc(OC)cc2)c(-c2ccc(OC)cc2)s1
148 °C	Cc1cc(COc2ccc(S(=O)(=O)NC[C@@H](C(=O)NO)N3CCN(Cc4ccc(C(F)(F)F)cc4)CC3)cc2)c2ccccc2n1
196 to 197 °C	CCn1cc(C(=O)NCc2ccc(Cl)cc2)c(=O)c2cc(Br)sc21
125 to 126 °C	CC(=O)OCc1cc2cc(-c3ccc(OC(F)(F)F)cc3)ccc2n1Cc1ccc(C)cc1
224 to 226 °C	Nc1nc(N)c(-c2cccc3ccccc23)c(C(F)(F)F)n1
224 to 228 °C	COc1ccc(N2C(=O)N(c3cccc(C#N)c3)c3nc(Nc4ccccc4)ncc3C2C)cc1 (centres undefined)
148 to 151 °C	CCOC(=O)c1ccccc1S(=O)(=O)NC(=O)Nc1nc(Cl)cc(OC(F)(F)F)n1
231 to 240 °C	COc1ccc(Nc2ccc(Nc3ncnc4cc(-c5cccs5)sc34)cc2)cc1

Further lines, the compound ahead of its results:

SMILES	melting point
COC(=O)c1cc(OCc2ccccc2)nn1C(C)C	73 to 74 °C
CC(=O)OC1(Cc2ccncc2)C(=O)N(N2CCOCC2)c2ccccc21 (centres undefined)	178 to 180 °C
Cn1ncc(Cl)c(NCCCCl)c1=O	42 to 46 °C
CON=Cc1cc(N=c2sc(=S)n3n2CCCC3)c(F)cc1Cl	128 to 133 °C
c1ccc(-c2cnns2)cc1	46 to 48 °C
OC1c2ccccc2-c2nc(-c3ccc(Cl)cc3Cl)ncc21 (centres undefined)	188 °C
CCCCCCCCCCCc1cc2cc(C(=O)OCC)ccc2[nH]1	76 to 77 °C
COC(=O)C(C)Nc1ccc(F)c(F)c1F (centres undefined)	41 to 43 °C
NC1(C2CCN(c3c(F)cc4c(=O)c(C(=O)O)cn(C5CC5)c4c3F)C2)CC1 (centres undefined)	227 to 230 °C
Cc1[nH]c(=O)[nH]c1C(=O)c1cccs1	212 to 215 °C
CCCCCCOc1ccc(C=[N+]([O-])C(C)(C)C)cc1OCC	35.5 °C
CC(C)Nc1ccc(C2=NNC(=O)Cc3cc4c(cc32)OCO4)cc1	144 to 146 °C
Cc1cc(C)c2c(c1C)NC(C)(CCCC(C)CCCC(C)CCCC(C)C)CC2 (centres undefined)	72 to 73 °C
CC(=O)Nc1ccn(C2OC(COC(C)=O)CC2OC(C)=O)c(=O)n1 (centres undefined)	174 to 177 °C
CNC(C)Cn1nc(Cl)c2cc3ccc(OC)cc3nc21 (centres undefined)	98 to 100 °C
CC1(C)Nc2ccc(Cl)cc2N(C2CC2)C1=O	132 to 133 °C
CC1(c2cccc(NS(C)(=O)=O)c2)C2CN(C(=O)CCc3ccsc3)CC21 (centres undefined)	180 °C
COc1ccc2c(c1)N(CC(=O)O)C(=O)C(N=[N+]=[N-])CC2 (centres undefined)	145 to 147 °C
CCCCCCCCOC(=O)c1cc(C(C)(C)C)c(OC(=O)c2cc(C(C)(C)C)c(O)c(C(C)(C)C)c2)c(C(C)(C)C)c1	94 to 97 °C
COc1cc2ncnc(N3CCN(C(=S)Nc4cccc(NC(C)=O)c4)CC3)c2cc1OC	207 to 208 °C
C[C@H](Nc1cc(Cl)ccc1[N+](=O)[O-])C(=O)O	167 to 169 °C
NCCSc1cc(N)c([N+](=O)[O-])cc1N	149 °C
Nc1cc(-n2cccc2)ccc1Nc1cccc(-n2ccnc2)c1	207 to 212 °C

SMILES	melting point
COC(=O)COc1cccc2c(CCSC(c3ccc(O)cc3)c3ccc(O)cc3)c(C)oc12	178 to 180 °C
COc1cc(I)c(C=O)cc1OC	139 to 141 °C
O=C(O)/C=C/n1cnc2ccc(OCCO)cc2c1=O	247 to 248 °C
COc1ccc([N+](=O)[O-])c(OC2CCOC2=O)c1 (centres undefined)	109 to 110 °C
CNc1ncc2c(=O)n(C)c(=O)n(C)c2n1	260 °C
COCCOc1ccc(OCC(O)CNCCOc2ccc(OC)cc2)c(C#N)c1 (centres undefined)	95 to 97 °C
C=CC(C)=CC=C(C(C)=CC(=O)OC1C(CO)OC(OC)C(O)C1O)c1c(C)cc(OC)c(C)c1C (centres undefined)	159 to 160 °C
CC(C)(CF)C(O)(Cn1ncnc1S)C(Cl)=CCl (centres undefined)	162 to 164 °C
Cc1cn(COC(COCc2ccccc2)COCc2ccccc2)c(=O)[nH]c1=O	96 to 98 °C
COc1cc(N(C(C)=O)c2c(C#N)cnc3ccsc23)c(Cl)cc1Cl	202 to 204 °C
CCC(=O)c1cc[nH]c(=O)c1	168 °C
CCCN(CCC)C(=O)c1cc(C)cc(C(=O)N[C@@H](Cc2cc(F)cc(F)c2)[C@@H](O)CCN)c1	61 to 72 °C
O=C(O)c1cc2ccccc2c(-c2cccc(I)c2)n1	145 to 146 °C
Fc1cc(Cl)c(OC2CCCC2)cc1-n1nc2c(c1Cl)CCCC2	88 to 91 °C
COc1cccc(C(=O)O)c1I	142 to 146 °C
Nc1ccc(Br)cc1C(O)c1ccccn1 (centres undefined)	104 to 105 °C
CON=C(C(=S)OC)c1ccccc1COc1ccccc1Cl	58 to 60 °C
COc1ccc(-c2nc(N3CCN(C)CC3)c3c(C)c(C#N)sc3n2)cc1	> 250 °C
c1ccc2c(NC3CCCCC3)nnc(Cc3ccncc3)c2c1	137 to 139 °C
O=C(O)CCCCCCCOc1ccccc1O	60 to 64 °C
O=C(CBr)N[C@H](CO)Cc1ccccc1	83 to 85 °C
CCCCCCCCCCCCCCCCNc1ccc(O)c2c1C(=O)c1c(N)ccc(N)c1C2=O	174 °C
CCOC(=O)c1c(Cl)nn(C)c1S(N)(=O)=O	121 to 123 °C

SMILES	melting point
Cc1cc(C)n(-c2cc(OS(C)(=O)=O)c(Cl)cc2F)n1	77.5 to 79 °C
CC(C)(c1cc(F)cc([N+](=O)[O-])c1O)c1cc(F)cc([N+](=O)[O-])c1O	138 °C
COc1ccc(N2CCN(C)CC2)cc1-c1cn[nH]c1N	174 to 178 °C
CCC(=O)OCC(OC(=O)CC)c1nc2c(C(F)(F)F)cccc2c(O)c1C(=O)Nc1nccs1 (centres undefined)	206 °C
O=C(CC=C(Cl)Cl)Oc1ccc([N+](=O)[O-])cc1	80 to 90 °C
CCNC(=S)C1=CC(C)(C)Oc2ccc(C#N)cc21	151 to 153 °C
Cc1c(Cl)nn(C(C)(C)C(=O)N(C)C)c1-c1ccccc1	134 to 136 °C
CCN(CC)CCCCNc1ncc2c(n1)NC(=O)N(c1cc(OC)cc(OC)c1)C2	203 to 207 °C
CC(C)=CCc1c(C)c(C)c(O)c(C)c1C	105 to 106 °C
CCOc1cc(COc2nn(-c3ccccc3)cc2/C=C/P(=O)(OCC)OCC)ccc1OCc1nc(-c2ccco2)oc1C	117 to 118 °C
BrCc1ccccc1-c1cc(-c2ccccc2)on1	68 to 72 °C
CC=CC(=O)Nc1n[nH]c2cc(C(F)(F)F)ccc12	208 °C
CCOC(=O)c1c(N(C(=O)OC(C)(C)C)C(=O)OC(C)(C)C)sc(C)c1C	70 to 78 °C
[N-]=[N+]=NC1CC(n2cc(C(I)=CI)c(=O)[nH]c2=O)OC1COC(c1ccccc1)(c1ccccc1)c1ccccc1 (centres undefined)	139 °C
COc1ccc(C(=O)N2CCc3cc(S(=O)(=O)N4CC(c5ccccc5)NC4=O)ccc32)cc1OC (centres undefined)	178 to 179 °C
NCCC1(O)c2ccccc2CCc2ccccc21	113 to 114 °C
CC(Cn1cnnn1)n1nnc2cc3c(=O)n(C4CC4)nnc3cc2c1=O (centres undefined)	233 to 235 °C
Cn1cc(C(=O)NCCC2CCN(S(=O)(=O)NC(=O)NC34CC5CC(CC(C5)C3)C4)CC2)c(=O)n(C)c1=O	224 to 226 °C
Cc1cc(C)c(C(=O)Oc2ccccc2)c(O)c1C	74 °C
Cc1nnc(-c2ccc3occ(-c4cccnc4)c3c2)o1	139 to 140 °C
CCCCn1c(CCC)ccc1Cc1cccc(NC(N)=O)c1	85 to 89 °C
